For data set [1], the system named is human embryonic stem cell derived neural stem cells (NSCs). Put plainly: Neural stem cell proliferation assay (neurogenesis assay, ATP/CellTiterGlo). Type of data set: cell-based. The following applies: 96 h, compound concentration at which 150% activity of control (100%) is reached, NSC proliferation by ATP level after 4 days incubation, dose response 8 μM to 8 nM. On the procedure:
Neural Stem Cell Proliferation Assay
Neurogenic properties of small molecules are determined based on the proliferation of human embryonic stem cell derived neural stem cells (NSCs) which were derived via a dual smad inhibition as previously described (Chambers, S. M., et al., Highly efficient neural conversion of human ES and iPS cells by dual inhibition of SMAD signaling, Nature biotechnology, 2009. 27(3): p. 275-80.)
Compounds respond is measured by the increase in cells based on ATP levels (Promega:CellTiterGlo®) after an incubation period of 4 days.
NSCs are thawed and expanded over 3 passages. On the 14th day, NSCs are seeded in Polyornithin/Laminin coated 384 well plates at a cell density of 21,000 cells/cm^2 in a media volume of 38 μL.
4 hours after cell seeding, compound solutions are added at a volume of 2 μl. Stock solutions of the compounds (water, 5% DMSO) are diluted to obtain a dose response (11 points, dilution factor is 2), ranging from 8 μM to 8 nM. Controls are run to consistently determine the neurogenic properties of the cells:
Negative (neutral) control is cell culture Media (final DMSO concentration: 0.25%).
Positive controls are: • 1. cell culture Media+100 ng/ml FGF2 (final DMSO concentration: 0.1%) • 2. cell culture Media+20 ng/ml EGF (final DMSO concentration: 0.1%) • 3. cell culture Media+100 ng/ml Wnt3a (final DMSO concentration: 0.1%)
After 4 days incubation at 37° C., 5% CO2, the amount of ATP per well is quantified. The ATP concentration is proportional to the cell number. ATP is quantified by using the Promega CellTiterGlo® kit. The CellTiterGlo® reagents contain a cell lysis buffer, a thermo stable luciferase (UltraGlo™ recombinant luciferase), magnesium and luciferin. Luciferin reacts with ATP producing oxyluciferin, AMP and light. The luminescence signal is proportional to the ATP content.
The value of negative (neutral) control is determined for each assay plate by taking the average of 16 negative control wells. The neurogenic compound response is calculated for each compound as (compound/Negative Control)*100.
The values of EC150 from the dose response curve are determined for each test compound. The EC150 is the compound concentration at which 150% activity of control (100%) is reached.
For orientation: In ATP-based viability assays light output follows the ATP content of the culture.

Regarding `Fc1ccc(-n2cncc2-c2ccc3ncn(-c4ccc(F)cc4)c3c2)cc1` [Example 30, 1-(4-Fluoro-phenyl)-6-[3-(4-fluoro-phenyl)-3H-imidazol-4-yl]-1H-benzoimidazole], the melting point is 247 °C. Also, the EC150 in data set [1] was found to be 0.11 µM.

As a reminder, the melting point is the temperature, or range, at which the solid turns liquid.

(Values after patent US9365550B2, “Benzimidazoles as CNS active agents” (Hoffmann-La Roche Inc., priority 2012, dated 2016).)
